This passage reports IC50 results from patent US9340590B2 (priority 2011, dated 2016).

Assay in all cases: cell-based
Assay [1] has as its target T1, hNav1.3 (Homo sapiens, UniProt Q9NY46). In kind it is cell-based. To be noted: Nav1.3 Use IC50.
The target of assay [2] is T2, hNav1.7 (Homo sapiens, UniProt Q15858). In kind it is cell-based.
Assay [3] deals with T3, hNav1.5 (Homo sapiens, UniProt Q14524). To be noted: IonWorks Quattro, use-dependent block, hNav1.5; read-out: IWQ Use Nav1.5.
Assay [4] addresses T1, hNav1.3. To be noted: IonWorks Quattro, use-dependent block, hNav1.3; read-out: IWQ Use Nav1.3. Background: In patch-clamp work, channel activity is measured electrically.
Assay [5] addresses T2, hNav1.7. To be noted: Nav1.7 Use IC50.
Assay [6] deals with T3, hNav1.5.
The mark [7] stands for this setting: IonWorks Quattro, use-dependent block, hNav1.7, read-out: IWQ Use Nav1.7.

Like-named read-outs stand apart in the source and are kept apart here. Positions of bridges follow the written chain, without caps; N, C: chain ends. Non-standard residues stand in square brackets, D forms with d. Residues, ends and D or L forms follow the SMILES beside them. Arg(Me2s) = CN=C(NC)NCCC[C@H](N)C(=O)O; Lys(Me2) = CN(C)CCCC[C@H](N)C(=O)O

T1 sequence (Q9NY46 whole entry, looked up): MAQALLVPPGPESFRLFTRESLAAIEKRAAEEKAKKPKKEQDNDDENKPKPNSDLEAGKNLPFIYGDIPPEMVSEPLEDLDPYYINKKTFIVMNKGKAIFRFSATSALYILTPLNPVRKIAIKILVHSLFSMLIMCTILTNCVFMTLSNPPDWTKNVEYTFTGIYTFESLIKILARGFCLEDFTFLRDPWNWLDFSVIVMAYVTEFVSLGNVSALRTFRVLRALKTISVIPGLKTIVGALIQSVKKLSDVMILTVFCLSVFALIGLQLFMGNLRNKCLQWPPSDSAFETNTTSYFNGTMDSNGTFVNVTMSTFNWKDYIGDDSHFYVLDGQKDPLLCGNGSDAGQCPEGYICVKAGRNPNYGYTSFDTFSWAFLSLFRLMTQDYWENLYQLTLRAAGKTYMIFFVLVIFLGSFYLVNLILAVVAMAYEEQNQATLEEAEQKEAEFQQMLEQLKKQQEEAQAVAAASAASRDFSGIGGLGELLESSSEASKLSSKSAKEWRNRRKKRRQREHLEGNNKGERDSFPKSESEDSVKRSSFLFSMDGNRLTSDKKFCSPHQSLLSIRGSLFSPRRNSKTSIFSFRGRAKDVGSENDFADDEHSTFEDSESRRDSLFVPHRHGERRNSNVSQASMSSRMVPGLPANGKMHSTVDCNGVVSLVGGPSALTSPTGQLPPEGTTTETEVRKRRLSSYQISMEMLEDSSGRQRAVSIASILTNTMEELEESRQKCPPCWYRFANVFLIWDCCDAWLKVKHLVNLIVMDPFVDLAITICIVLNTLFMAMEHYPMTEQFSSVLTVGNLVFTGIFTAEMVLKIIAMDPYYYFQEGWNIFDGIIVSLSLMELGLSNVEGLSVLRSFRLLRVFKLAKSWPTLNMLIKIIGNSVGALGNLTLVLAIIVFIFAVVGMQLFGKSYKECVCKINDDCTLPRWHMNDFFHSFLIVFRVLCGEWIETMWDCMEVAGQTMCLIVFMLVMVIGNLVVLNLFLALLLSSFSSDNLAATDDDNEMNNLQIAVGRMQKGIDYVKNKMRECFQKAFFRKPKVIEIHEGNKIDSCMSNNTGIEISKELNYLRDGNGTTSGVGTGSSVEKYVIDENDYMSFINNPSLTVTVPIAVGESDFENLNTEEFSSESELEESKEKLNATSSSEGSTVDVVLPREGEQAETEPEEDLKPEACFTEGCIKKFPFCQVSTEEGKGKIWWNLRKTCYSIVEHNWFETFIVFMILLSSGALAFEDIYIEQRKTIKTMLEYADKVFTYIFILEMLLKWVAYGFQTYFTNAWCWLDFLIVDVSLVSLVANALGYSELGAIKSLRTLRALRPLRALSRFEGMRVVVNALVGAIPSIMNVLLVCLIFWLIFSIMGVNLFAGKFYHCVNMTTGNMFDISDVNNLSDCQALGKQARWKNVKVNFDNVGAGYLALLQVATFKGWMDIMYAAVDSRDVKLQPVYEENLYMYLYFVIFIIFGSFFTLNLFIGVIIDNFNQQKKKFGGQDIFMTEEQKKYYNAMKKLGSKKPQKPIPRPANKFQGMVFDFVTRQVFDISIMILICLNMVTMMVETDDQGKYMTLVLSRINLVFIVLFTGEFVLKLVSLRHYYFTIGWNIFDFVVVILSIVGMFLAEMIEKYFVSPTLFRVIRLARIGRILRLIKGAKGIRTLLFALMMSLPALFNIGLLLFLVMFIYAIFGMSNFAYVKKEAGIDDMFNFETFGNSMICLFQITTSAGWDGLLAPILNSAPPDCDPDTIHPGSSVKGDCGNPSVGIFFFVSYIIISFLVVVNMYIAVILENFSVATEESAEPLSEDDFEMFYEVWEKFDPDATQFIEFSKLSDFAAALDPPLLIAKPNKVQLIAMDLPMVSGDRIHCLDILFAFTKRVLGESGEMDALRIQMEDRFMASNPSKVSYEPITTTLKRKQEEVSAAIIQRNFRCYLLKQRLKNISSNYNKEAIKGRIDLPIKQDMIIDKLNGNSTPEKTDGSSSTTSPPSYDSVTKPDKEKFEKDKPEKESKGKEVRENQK
T3 sequence (Q14524 whole entry, looked up): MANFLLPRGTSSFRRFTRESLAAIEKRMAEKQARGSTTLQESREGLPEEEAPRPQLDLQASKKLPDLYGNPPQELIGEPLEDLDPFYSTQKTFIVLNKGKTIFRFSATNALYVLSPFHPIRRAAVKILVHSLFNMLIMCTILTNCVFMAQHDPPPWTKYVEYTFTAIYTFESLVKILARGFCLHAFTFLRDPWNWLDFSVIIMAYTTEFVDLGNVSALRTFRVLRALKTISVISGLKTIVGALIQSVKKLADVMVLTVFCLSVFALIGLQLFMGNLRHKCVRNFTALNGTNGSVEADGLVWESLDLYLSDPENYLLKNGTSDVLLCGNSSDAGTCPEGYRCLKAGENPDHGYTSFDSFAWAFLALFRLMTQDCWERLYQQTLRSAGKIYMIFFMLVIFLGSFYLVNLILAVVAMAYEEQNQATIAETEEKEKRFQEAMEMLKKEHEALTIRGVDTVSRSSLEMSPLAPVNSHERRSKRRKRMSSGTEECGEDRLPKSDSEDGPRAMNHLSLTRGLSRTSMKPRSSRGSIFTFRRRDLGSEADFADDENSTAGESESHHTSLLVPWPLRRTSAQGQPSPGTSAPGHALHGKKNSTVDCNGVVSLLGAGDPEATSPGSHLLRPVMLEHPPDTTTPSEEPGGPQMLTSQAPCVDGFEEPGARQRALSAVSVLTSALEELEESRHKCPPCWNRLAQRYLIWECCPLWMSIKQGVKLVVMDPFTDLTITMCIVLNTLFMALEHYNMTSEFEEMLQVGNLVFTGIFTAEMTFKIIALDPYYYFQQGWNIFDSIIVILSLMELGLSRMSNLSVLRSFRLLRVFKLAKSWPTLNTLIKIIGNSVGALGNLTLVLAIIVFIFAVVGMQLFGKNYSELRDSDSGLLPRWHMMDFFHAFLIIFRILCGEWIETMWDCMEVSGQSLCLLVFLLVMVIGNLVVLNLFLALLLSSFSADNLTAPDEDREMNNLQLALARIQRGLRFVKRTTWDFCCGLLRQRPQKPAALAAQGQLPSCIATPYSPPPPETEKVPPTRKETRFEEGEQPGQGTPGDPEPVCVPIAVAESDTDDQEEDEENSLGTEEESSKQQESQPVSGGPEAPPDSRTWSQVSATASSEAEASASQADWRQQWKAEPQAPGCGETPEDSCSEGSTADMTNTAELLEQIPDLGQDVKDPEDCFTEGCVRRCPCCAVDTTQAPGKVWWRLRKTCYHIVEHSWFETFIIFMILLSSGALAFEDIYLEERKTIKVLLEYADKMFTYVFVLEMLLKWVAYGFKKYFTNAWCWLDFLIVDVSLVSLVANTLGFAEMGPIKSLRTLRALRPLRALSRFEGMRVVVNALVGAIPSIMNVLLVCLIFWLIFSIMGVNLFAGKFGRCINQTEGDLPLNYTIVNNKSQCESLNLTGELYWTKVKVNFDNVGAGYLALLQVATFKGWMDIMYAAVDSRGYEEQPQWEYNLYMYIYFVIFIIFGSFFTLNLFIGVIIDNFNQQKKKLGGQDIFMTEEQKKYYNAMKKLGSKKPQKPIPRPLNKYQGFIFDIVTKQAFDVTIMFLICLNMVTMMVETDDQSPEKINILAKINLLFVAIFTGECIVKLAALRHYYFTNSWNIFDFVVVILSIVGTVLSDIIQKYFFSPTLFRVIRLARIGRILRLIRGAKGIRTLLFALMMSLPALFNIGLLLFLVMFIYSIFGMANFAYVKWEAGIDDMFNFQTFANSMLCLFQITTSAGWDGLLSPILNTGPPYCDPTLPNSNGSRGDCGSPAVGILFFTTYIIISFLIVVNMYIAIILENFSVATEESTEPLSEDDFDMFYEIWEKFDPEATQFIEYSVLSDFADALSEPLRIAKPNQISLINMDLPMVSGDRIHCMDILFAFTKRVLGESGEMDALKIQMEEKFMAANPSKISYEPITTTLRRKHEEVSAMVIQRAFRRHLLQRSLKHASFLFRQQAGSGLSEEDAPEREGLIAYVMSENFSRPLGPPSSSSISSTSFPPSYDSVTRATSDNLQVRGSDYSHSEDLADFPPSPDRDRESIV

On hNav1.3 [1], `CC[C@H](C)[C@@H]1NC(=O)[C@@H]2CSSC[C@@H]3NC(=O)[C@H](C(C)C)NC(=O)[C@H](CC(C)C)NC(=O)[C@H](CC(N)=O)NC(=O)[C@@H]4CCCN4C(=O)[C@H](CCCNC(=N)N)NC(=O)[C@H](CSSC[C@H](NC(=O)[C@@H](N)CC(=O)O)C(=O)N[C@@H](CC(C)C)C(=O)NCC(=O)N[C@@H](C)C(=O)N[C@@H](Cc4ccccc4)C(=O)N[C@@H](CCCNC(=N)N)C(=O)N[C@@H](CCCCN)C(=O)N2)NC(=O)[C@H](CSSC[C@@H](C(=O)N[C@@H](CCCCN)C(=O)N[C@@H](Cc2ccc(O)cc2)C(=O)N[C@H](C(=O)N[C@@H](Cc2ccccc2)C(N)=O)C(C)C)NC(=O)[C@H](Cc2c[nH]c4ccccc24)NC(=O)[C@H](CCCCN)NC(=O)[C@H](Cc2cnc[nH]2)NC(=O)[C@H](CC(C)C)NC(=O)[C@H](CCCNC(=N)N)NC(=O)[C@H](CO)NC3=O)NC(=O)[C@H](CCCCN)NC(=O)[C@H](CC(=O)O)NC(=O)[C@H](CC(N)=O)NC(=O)[C@H](CC(=O)O)NC(=O)[C@@H]2CCCN2C1=O` [[Ala5;Phe6;Leu26]GpTx-1(1-34)] (H-DCLGAFRKCIPDNDKCCRPNLVCSRLHKWCKYVF-NH2; disulfide 2-17, 9-23, 16-30) displayed an IC50 of 11 nM.
With `CC[C@H](C)[C@@H]1NC(=O)[C@@H]2CSSC[C@@H]3NC(=O)[C@H](C(C)C)NC(=O)[C@H](CC(C)C)NC(=O)[C@H](CC(N)=O)NC(=O)[C@@H]4CCCN4C(=O)[C@H](CCCNC(=N)N)NC(=O)[C@H](CSSC[C@H](NC(=O)[C@@H](N)CC(=O)O)C(=O)N[C@@H](CC(C)C)C(=O)NCC(=O)N[C@@H](Cc4ccccc4)C(=O)N[C@@H](CCSC)C(=O)N[C@@H](CCC(=O)O)C(=O)N[C@@H](CCCCN)C(=O)N2)NC(=O)[C@H](CSSC[C@@H](C(=O)N[C@@H](CCCCN)C(=O)N[C@@H](Cc2ccc(O)cc2)C(=O)N[C@H](C(=O)N[C@@H](Cc2ccccc2)C(N)=O)C(C)C)NC(=O)[C@H](Cc2c[nH]c4ccccc24)NC(=O)[C@H](CCCCN)NC(=O)[C@H](Cc2cnc[nH]2)NC(=O)[C@H]([C@@H](C)O)NC(=O)[C@H](CCCNC(=N)N)NC(=O)[C@H](CO)NC3=O)NC(=O)[C@H](CCCCN)NC(=O)[C@H](CC(=O)O)NC(=O)[C@H](CC(N)=O)NC(=O)[C@H](CC(=O)O)NC(=O)[C@@H]2CCCN2C1=O` [[Glu7]GpTx-1(1-34)] (H-DCLGFMEKCIPDNDKCCRPNLVCSRTHKWCKYVF-NH2; disulfide 2-17, 9-23, 16-30), the IC50 on hNav1.7 [2] was 880 nM; on hNav1.5 [3], 19100 nM; at hNav1.3 [4] it was 1680 nM; at hNav1.7 [5], 98 nM; against hNav1.5 [6], above 10000 nM.
As for `CC[C@H](C)[C@@H]1NC(=O)[C@@H]2CSSC[C@@H]3NC(=O)[C@H](C(C)C)NC(=O)[C@H](CC(C)C)NC(=O)[C@H](CC(N)=O)NC(=O)[C@@H]4CCCN4C(=O)[C@H](CCCNC(=N)N)NC(=O)[C@H](CSSC[C@H](NC(=O)[C@@H](N)CC(=O)O)C(=O)N[C@@H](CC(C)C)C(=O)NCC(=O)N[C@@H](Cc4ccccc4)C(=O)N[C@@H](CCSC)C(=O)N[C@@H](CCCCN(C)C)C(=O)N[C@@H](CCCCN)C(=O)N2)NC(=O)[C@H](CSSC[C@@H](C(=O)N[C@@H](CCCCN)C(=O)N[C@@H](Cc2ccc(O)cc2)C(=O)N[C@H](C(=O)N[C@@H](Cc2ccccc2)C(N)=O)C(C)C)NC(=O)[C@H](Cc2c[nH]c4ccccc24)NC(=O)[C@H](CCCCN)NC(=O)[C@H](Cc2c[nH]cn2)NC(=O)[C@H]([C@@H](C)O)NC(=O)[C@H](CCCNC(=N)N)NC(=O)[C@H](CO)NC3=O)NC(=O)[C@H](CCCCN)NC(=O)[C@H](CC(=O)O)NC(=O)[C@H](CC(N)=O)NC(=O)[C@H](CC(=O)O)NC(=O)[C@@H]2CCCN2C1=O` [[K(Me2)7]GpTx-1(1-34)] (H-DCLGFM[Lys(Me2)]KCIPDNDKCCRPNLVCSRTHKWCKYVF-NH2; disulfide 2-17, 9-23, 16-30), the IC50 at hNav1.7 [2] (setting [7]) is 820 nM; on hNav1.5 [3] it was 13300 nM; at hNav1.3 [4], 270 nM; against hNav1.7 [5], 20 nM; against hNav1.5 [6] it was above 10000 nM.
On to `CC[C@H](C)[C@@H]1NC(=O)[C@@H]2CSSC[C@@H]3NC(=O)[C@H](C(C)C)NC(=O)[C@H](CC(C)C)NC(=O)[C@H](CC(N)=O)NC(=O)[C@@H]4CCCN4C(=O)[C@H](CCCNC(=N)N)NC(=O)[C@H](CSSC[C@H](NC(=O)[C@@H](N)CC(=O)O)C(=O)N[C@@H](CC(C)C)C(=O)NCC(=O)N[C@@H](Cc4ccccc4)C(=O)N[C@@H](CCSC)C(=O)N[C@@H](CCCNC(=N)N)C(=O)N[C@@H](CCCCN(C)C)C(=O)N2)NC(=O)[C@H](CSSC[C@@H](C(=O)N[C@@H](CCCCN)C(=O)N[C@@H](Cc2ccc(O)cc2)C(=O)N[C@H](C(=O)N[C@@H](Cc2ccccc2)C(N)=O)C(C)C)NC(=O)[C@H](Cc2c[nH]c4ccccc24)NC(=O)[C@H](CCCCN)NC(=O)[C@H](Cc2c[nH]cn2)NC(=O)[C@H]([C@@H](C)O)NC(=O)[C@H](CCCNC(=N)N)NC(=O)[C@H](CO)NC3=O)NC(=O)[C@H](CCCCN)NC(=O)[C@H](CC(=O)O)NC(=O)[C@H](CC(N)=O)NC(=O)[C@H](CC(=O)O)NC(=O)[C@@H]2CCCN2C1=O` [[K(Me2)8]GpTx-1(1-34)], for which the IC50 is 190 nM at hNav1.7 [2] (setting [7]); 9460 nM at hNav1.5 [3]; 180 nM on hNav1.3 [4]; 4 nM against hNav1.7 [5]; above 10000 nM against hNav1.5 [6].
As to `CC[C@H](C)[C@@H]1NC(=O)[C@@H]2CSSC[C@@H]3NC(=O)[C@H](C(C)C)NC(=O)[C@H](CC(C)C)NC(=O)[C@H](CC(N)=O)NC(=O)[C@@H]4CCCN4C(=O)[C@H](CCCNC(=N)N)NC(=O)[C@H](CSSC[C@H](NC(=O)[C@@H](N)CC(=O)O)C(=O)N[C@@H](CC(C)C)C(=O)NCC(=O)N[C@@H](Cc4ccccc4)C(=O)N[C@@H](CCSC)C(=O)N[C@@H](CCCNC(=NC)NC)C(=O)N[C@@H](CCCCN)C(=O)N2)NC(=O)[C@H](CSSC[C@@H](C(=O)N[C@@H](CCCCN)C(=O)N[C@@H](Cc2ccc(O)cc2)C(=O)N[C@H](C(=O)N[C@@H](Cc2ccccc2)C(N)=O)C(C)C)NC(=O)[C@H](Cc2c[nH]c4ccccc24)NC(=O)[C@H](CCCCN)NC(=O)[C@H](Cc2c[nH]cn2)NC(=O)[C@H]([C@@H](C)O)NC(=O)[C@H](CCCNC(=N)N)NC(=O)[C@H](CO)NC3=O)NC(=O)[C@H](CCCCN)NC(=O)[C@H](CC(=O)O)NC(=O)[C@H](CC(N)=O)NC(=O)[C@H](CC(=O)O)NC(=O)[C@@H]2CCCN2C1=O` [[SDMA7]GpTx-1(1-34)], the IC50 at hNav1.7 [2] (setting [7]) was 240 nM; on hNav1.5 [3], 10300 nM; at hNav1.3 [4] it was 120 nM; at hNav1.7 [5], 6 nM; at hNav1.5 [6], 14000 nM.
Taken in the same sequence, the figures for `CC[C@H](C)[C@@H]1NC(=O)[C@@H]2CSSC[C@@H]3NC(=O)[C@H](C(C)C)NC(=O)[C@H](CC(C)C)NC(=O)[C@H](CC(N)=O)NC(=O)[C@@H]4CCCN4C(=O)[C@H](CCCNC(=N)N)NC(=O)[C@H](CSSC[C@H](NC(=O)[C@@H](N)CC(=O)O)C(=O)N[C@@H](CC(C)C)C(=O)NCC(=O)N[C@@H](Cc4ccccc4)C(=O)N[C@@H](CCSC)C(=O)N[C@@H](CCCNC(=N)N)C(=O)N[C@@H](CCCNC(=NC)NC)C(=O)N2)NC(=O)[C@H](CSSC[C@@H](C(=O)N[C@@H](CCCCN)C(=O)N[C@@H](Cc2ccc(O)cc2)C(=O)N[C@H](C(=O)N[C@@H](Cc2ccccc2)C(N)=O)C(C)C)NC(=O)[C@H](Cc2c[nH]c4ccccc24)NC(=O)[C@H](CCCCN)NC(=O)[C@H](Cc2c[nH]cn2)NC(=O)[C@H]([C@@H](C)O)NC(=O)[C@H](CCCNC(=N)N)NC(=O)[C@H](CO)NC3=O)NC(=O)[C@H](CCCCN)NC(=O)[C@H](CC(=O)O)NC(=O)[C@H](CC(N)=O)NC(=O)[C@H](CC(=O)O)NC(=O)[C@@H]2CCCN2C1=O` [[SDMA8]GpTx-1(1-34)] (H-DCLGFMR[Arg(Me2s)]CIPDNDKCCRPNLVCSRTHKWCKYVF-NH2; disulfide 2-17, 9-23, 16-30) were 200 nM, 9050 nM, 200 nM, 5 nM and above 10000 nM.
Taken in the same sequence, the figures for `CC[C@H](C)[C@@H]1NC(=O)[C@@H]2CSSC[C@@H]3NC(=O)[C@H](C(C)C)NC(=O)[C@H](CC(C)C)NC(=O)[C@H](CC(N)=O)NC(=O)[C@@H]4CCCN4C(=O)[C@H](CCCNC(=N)N)NC(=O)[C@H](CSSC[C@H](NC(=O)[C@@H](N)CC(=O)O)C(=O)N[C@@H](CC(C)C)C(=O)NCC(=O)N[C@@H](Cc4ccccc4)C(=O)N[C@@H](CCSC)C(=O)N[C@@H](CCCNC(=N)N)C(=O)N[C@@H]([C@@H](C)O)C(=O)N2)NC(=O)[C@H](CSSC[C@@H](C(=O)N[C@@H](CCCCN)C(=O)N[C@@H](Cc2ccc(O)cc2)C(=O)N[C@H](C(=O)N[C@@H](Cc2ccccc2)C(N)=O)C(C)C)NC(=O)[C@H](Cc2c[nH]c4ccccc24)NC(=O)[C@H](CCCCN)NC(=O)[C@H](Cc2c[nH]cn2)NC(=O)[C@H]([C@@H](C)O)NC(=O)[C@H](CCCNC(=N)N)NC(=O)[C@H](CO)NC3=O)NC(=O)[C@H](CCCCN)NC(=O)[C@H](CC(=O)O)NC(=O)[C@H](CC(N)=O)NC(=O)[C@H](CC(=O)O)NC(=O)[C@@H]2CCCN2C1=O` [[Thr8]GpTx-1(1-34)] (H-DCLGFMRTCIPDNDKCCRPNLVCSRTHKWCKYVF-NH2; disulfide 2-17, 9-23, 16-30) were 350 nM, 9860 nM, 150 nM, 9 nM and above 10000 nM.
